Source: patent US20130324543A1, “REVERSAL OF HIGH BREAST CANCER RISK IN MAMMALS EXPOSED TO ESTROGENIC CHEMICALS IN UTERO BY ADULT EXPOSURE TO HDAC AND DNMT INHIBITORS” (Georgetown University, priority 2012, published 2013)
“Also recorded” adds a separate entry of the source.

What was measured:
mammary tumors = test: MPA/DMBA-induced mammary tumorigenesis in mice exposed in utero to EE2 or GEN, with or without adult HDAC+DNMT inhibitors; settings: mouse, in vivo
Protocol: Time pregnant C57BL/6 female mice were obtained from Harlan (Harlan-Teclad, USA) on gestation day 6, and were randomly assigned into three groups on the following day (gestation day 7). The basic diet formulation in the study was a semi-purified AIN93G (the American Institute of Nutrition) modified to replace soy oil for corn oil; all the diets of the three treatment groups were also purchased from Harlan. The diets were isocaloric, as ethinyl estradiol (EE2) or genistein (GEN) were added in the diet at the expense of comstarch. Additions to the basic diet were as follows: 1) EE2 0.1 ppm, and 2) GEN 500 ppm. EE2 was purchased from Sigma Chemicals (St. Louis, Mo., USA), and GEN was a gift from Dr. William Helferich (University of Illinois, Urbana, Ill., USA).
The pregnant dams were fed these diets until the day of the delivery of their pups (Post Natal Day 0, PND 0). Starting on PND 0, all mice were fed the control diet until the end of the study. Female mice born from the dams fed with the different above mentioned diets were used in the subsequent studies. For study outline, see FIG. 12. Animals were housed in a temperature- and humidity-controlled room under a 12-hour light-dark cycle. All animal procedures were approved by the Georgetown University Animal Care and Use Committee, and the experiments were performed following the National Institutes of Health guidelines for the proper and humane use of animals in biomedical research.
Mammary tumors were induced by administration of a subcutaneous injection of Medroxyprogesterone Acetate (MPA) to mice at 6 weeks of age, followed by administration of 1 mg 7,12-dimethylbenz(a)anthracene (DMBA) (Sigma, St. Louis, Mo.) weekly for four weeks (weeks 7, 8, 9, 10) (23). The carcinogen was dissolved in corn oil and administered by oral gavage in a volume of ca. 0.1 ml.
One week after the last dose of DMBA was administered, some of the mice were started on hydralazine (5 mg/kg/day) and valproic acid treatments (1.16 g/kg/day) treatments.
The two compounds were given in a drinking water, which was prepared fresh twice a week. The doses were chosen based on the literature (24-26). The number of animals in each group is as follows: Control n=18, Control given HDAC+DNMT inhibitors n=9, EE2 n=9, EE2 given HDAC+DNMT inhibitors n=6, GEN n=14, and GEN given HDAC+DNMT inhibitors n=8.
Mice were examined for mammary tumors by palpation once per week. Tumor growth was monitored for 16 weeks after the last dose of DMBA administration. During the follow-up, animals in which tumor burden approximated 10% of total body weight were euthanized, as required by the ethical guidelines of our institution. All surviving animals were sacrificed at that point for sample collection. The end-points for tumor data analysis were (i) latency to tumor appearance, (ii) the number of animals with tumors (tumor incidence), and (iii) the cumulative tumor area (tumor burden). The latter was achieved by adding the total tumor area per group each week and dividing it with the number of mice in the group.
(§1) Mammary tumor latency was compared with the final tumor burden in utero EE2 and GEN exposed mice to control mice, and in utero EE2 and GEN exposed mice to control mice exposed to HDAC+DNMT inhibitors separately; analysis was done using one-way ANOVA. Cumulative tumor burden during 16 weeks of tumor monitoring in the three groups, separately in those mice not given HDAC+DNMT inhibitors and those treated with the epigenetic drugs, was analysed using repeated measures one-way ANOVA. Log rank analysis was performed to compare mammary tumor incidence in the control and in utero EE2 and GEN exposed mice, again separately in those mice not given HDAC+DNMT inhibitors and those treated with the epigenetic drugs. Data for changes in DNMT1 expression among the groups in the mammary glands and tumors were assessed using two-way ANOVA, followed by Fisher LSD test

DNMT1 [1] = test: DNMT1 mRNA expression (qRT-PCR) in mouse mammary glands and tumors; type: in vivo; settings: in utero exposure vs control mice
Text: Total RNA was extracted using an RNeasy lipid mini kit (Qiagen, CA), according to manufacturer's instructions. One […] of total RNA per sample was used as a template for oligo-dT primed cDNA synthesis with a Supterscript reverse transcriptase, using Taqman Reverse Transcription kit (Applied Biosystems, CA). The cDNA samples served then as templates for quantitative real time PCR analysis with specific primers for the target gene using QuantiTect SYBR green PCR kit (Qiagen Inc., Valencia, Calif.) and an ABI Prism 7900 Sequence Detection System. Each sample was run in triplicate on a 384-well plate, and the qPCR run was repeated twice. The Ct values were averaged from the triplicates for each sample. To normalize the target gene expression the ratio to control RNA was calculated, i.e. the averages of the Ct triplicates from the Dnmt1 gene were divided by the average of the triplicates from the 18S gene. To determine the fold change of the target gene expression the results are presented as 2^ΔCt, where ΔCt=CT^target−Ct^18S.
The primer sequences for m18S rRNA were as previously published by Wang et al. (27).
as §1

[2] = Puberty onset (vaginal opening) of female mice exposed in utero; type: in vivo, C57BL/6 mice
Protocol: To assess possible changes in sexual maturation due to in utero ECD exposures during embryogenesis, the day of puberty onset was recorded, as defined based on vaginal opening (VO) in female mice. The mice were examined once a day starting on PND 21. In sexually mature mice, the stage of estrus cycle was determined based on the cytology of their vaginal smear (sampled by pipetting 20 μl PBS in and out of vagina onto a slide) as judged under the microscope. Stage of estrus cycle was determined for each mouse before necropsy and sample collection.

Dnmt1 [3] = test: Dnmt mRNA expression (qRT-PCR) in mammary glands of F1-F3 rat offspring; type: in vivo, Sprague-Dawley rats; settings: for levels of Dnmt1 mRNA in mammary gland: PND50
Text: Total mammary RNA (n=3-6/group) was used as a template for random primed cDNA synthesis (TaqMan MultiScribe Reverse Transcriptase and RT-PCR Reagents, AppliedBiosystems, Roche, N.J., USA). cDNA samples were then used as templates for quantitative RT PCR analysis with previously described specific primers for the target gene, rat Dnmt1 (124) using QuantiTect SYBR green PCR kit (Qiagen Inc., Valencia, Calif.). Each sample was normalized to the reference gene 18S rRNA (27). Two hundred ng of total RNA per sample (n=3-6) was used as a template for random primed cDNA synthesis with a recombinant Moloney murine leukemia virus reverse transcriptase (TaqMan MultiScribe Reverse Transcriptase and RT-PCR Reagents, AppliedBiosystems, Roche, N.J., USA), according to manufacturer's instructions. An RT enzyme-minus control reaction was also included. The cDNA samples were then used as templates for quantitative real time PCR analysis with previously described specific primers for the target gene, rat Dnmt1(29) using QuantiTect SYBR green PCR kit (Qiagen Inc., Valencia, Calif.) and an ABI Prism 7900 Sequence Detection System. Each sample was run in triplicate, and the qPCR run was repeated twice. Absolute gene expression levels were determined using Applied Biosystems' SDS2.3 software and the standard curve method. Concentration of each sample was normalized to the reference gene 18S rRNA (30), and averages of the three runs are shown. Differences in Dnmt1 mRNA expression levels were tested by two-way ANOVA (after log-transformation), followed by Holm-Sidak multicomparison procedure.

## C#C[C@]1(O)CC[C@H]2[C@@H]3CCc4cc(O)ccc4[C@H]3CC[C@@]21C [EE2, ethinyl estradiol]
Mammary tumors
  Final tumor burden per mouse: significantly higher
  Mammary tumor incidence: significantly higher
  mammary tumorigenesis: increased mammary tumorigenesis
DNMT1 [1]
  DNMT1 expression in mammary tumors: significantly lower
  expression of DNMT1 in mammary glands: an increase in the expression of DNMT1; also recorded: persistent up-regulation
[2]; female offspring, in utero exposure
  puberty onset / vaginal opening: significantly earlier puberty onset; also recorded: significantly accelerated
[2]; female pups, instead of PND 32
  puberty onset: 27 PND
Dnmt1 [3]; F1 generation
  levels of Dnmt1 mRNA in mammary gland: increased
Dnmt1 [3]; F2 and F3 generation offspring
  levels of Dnmt1 mRNA in mammary gland: this increase persisted
Dnmt1 [3]; in utero exposed rats, not shown
  DNMT3a or 3b expression in the mammary glands: Neither DNMT3a or 3b were altered
